Measurements reported in patent US20220332821A1, “DOSING REGIMEN AND COMBINATION THERAPIES FOR MULTISPECIFIC ANTIBODIES TARGETING B-CELL MATURATION ANTIGEN” (NOVARTIS AG, priority 2019, published 2022).
“Also recorded” adds a separate entry of the source.

How the values were obtained:
[1] = system: BCMA shedding in KMS11 cells; assay: Shed BCMA levels by ELISA after GSI treatment of KMS11 cells; type: cell-based, human; conditions: 20 hours, serial dilution from 1 μM
Protocol: (§1) KMS11-Luc cells were cultured in a 96-well round bottomed plate (Corning #3799) at 1.5×10^5 cells per well in a final volume of 200 μL that included a 12-point, 5-fold serial dilution of AL-102 in RPMI1640 (Gibco #11875-085) supplemented with 20% FBS (Seradigm #1500-500) and L-glutamine (Thermo Fisher #25030-081). The highest starting concentration of AL-102 was 1 μM. Cells were incubated for 20 hours at 37° C./5% CO2. Cells were pelleted, supernatant collected for measurement of shed BCMA levels, and cell pellets stained for evaluation of BCMA membrane expression levels.
Soluble BCMA levels in supernatant were determined by ELISA following a vendor supplied protocol (R&D Systems #DY193). Briefly, recombinant human BCMA-Fc protein was included in the kit, and used to generate a standard curve. Collected samples were assayed and sBCMA concentrations extrapolated from the standard curve. Quantified values as determined by the kit were divided by 5.5 to correct for a molecular mass difference between BCMA-Fc fusion protein used in the kit as a standard curve (32,554.6 Da) and the mass of endogenously shed BCMA extra-cellular domain (5,899.3 Da). The results were analyzed using SoftMax Pro v5.4.1 and graphed in GraphPad Prism.

[2] = system: membrane BCMA on KMS11 cells; assay: BCMA membrane expression by flow cytometry after GSI treatment of KMS11 cells; type: cell-based, human
Protocol: as §1
Cells were pelleted by centrifugation, and supernatants were transferred to a fresh plate and frozen at −80° C. for later sBCMA analysis by ELISA. For membrane BCMA analysis, cell pellets were resuspended in 100 μL BD Stain Buffer containing BSA (BD#554657) and stained with anti-BCMA-PE (Biolegend, clone 19F2 1.25 ul/test) and Fixable Viability Dye eFluor506 (Thermo Scientific, 1:800 dilution) for 30 minutes at 4° C. Samples were analyzed by flow cytometry on a BD LSR Fortessa instrument. FlowJo v10 software was used for analysis. The anti-BCMA antibody binding capacity (ABC) on KMS11 cells was determined using Quantum Simply Cellular beads (Bangs Laboratories) following a vendor supplied protocol. The ABC is an estimate of the quantity of receptors per cell.

[3] = system: KMS11-Luc cells; assay: RTCC assay with KMS11-Luc and human T cells, BSBM3 and AL-102 matrix, Example 9; type: cell-based
Protocol: To evaluate the ability of AL-102 to enhance the activity of BSBM3, a redirected T cell cytotoxicity (RTCC) assay was performed using human T cells and a BCMA-expressing multiple myeloma cell line treated with dose range combinations of BSBM3 and AL-102 in a 10×8 matrix fashion. Human T cells were enriched from peripheral blood of three healthy human donors. First, peripheral blood mononuclear cells (PBMCs) were fractionated from donor blood using a Ficoll-Paque PLUS density gradient (GE Healthcare #17-1440-02) in Leucosep tubes (Greiner #227290) and stored as viable frozen aliquots in liquid nitrogen. PBMC were thawed and Pan T cells were isolated by negative selection according to manufacturer's recommended protocol (Miltenyi #130-096-535). The unlabeled cell fraction, enriched for T cells, was collected by manual magnetic separation on LS columns (Miltenyi #130-042-401). T cells were prepared in T cell media (TCM) consisting of RPMI-1640 (Gibco #11875-085), 10% FBS (Seradigm #1500-500), 1% Pen/Strep (Life Technologies #15070063), 1% L-glutamine (Thermo Scientific #25030-081), 1% Non-Essential Amino Acids (NEAA) (Life Technologies #11140-050), Sodium Pyruvate (NaPy) (Life Technologies #11360-070), HEPES (Life technologies, Cat #15630080), 0.1% 2-Betamercaptoethanol (2-BME) (Life Technologies, Cat #21985-023). KMS11 multiple myeloma cell line was cultured in RPMI1640 supplemented with 20% FBS (Gibco #11875-085, Seradigm #1500-500). The target MM cell line KMS11 was transduced to constitutively express luciferase (KMS11-Luc), and used to measure cell viability/survival. KMS11-Luc cells were pelleted and resuspended in fresh media immediately prior to plating to remove any basal level of shed BCMA that may be present. 7,500 KMS11-Luc target cells in 10 μL TCM were added to wells of 384-well plates (Corning #3765). 10 μl of BSBM3 at a concentration of 10 nM was serially diluted 5-fold, and 10 μl of AL-102 at a concentration of 1000 nM was serially diluted 5-fold, and dispensed into corresponding wells of the assay plates. 15,000 T cells were added to corresponding wells of the assay plate in 10 μL TCM for an E:T of 2:1. The assay was incubated at 37° C./5% CO2 for 48 hr, followed by measurement of luciferase activity to indicate target cell viability (BrightGlo, Promega #E2650) following manufacturer's protocols. Plates were read on an Envision plate reader. Target cells only (KMS11-Luc) without T cells or antibodies served as control and represent 100% luciferase activity (100% viability). Data were plotted and analyzed using GraphPad Prism. EC50 values were calculated using sigmoidal, 4-parameter non-linear regression curve fit.

Cc1cccc2c1NC(=O)[C@@H](NC(=O)[C@H](CCC(F)(F)F)[C@H](CCC(F)(F)F)C(N)=O)N=C2c1cccc(F)c1 [AL-102]
inhibition of BCMA shedding [1]: effectively inhibited shedding of BCMA from KMS11 cells in a dose-dependent manner | increase in cell surface BCMA expression ([2]; 1 μM AL-102 versus untreated KMS11 cells): 20 fold | average BCMA antibody-binding capacity (ABC) ([2]; KMS11 cells, 1 μM AL-102, 20 hours, untreated ˜14,000): ~285,000 | AL-102 concentration with minimal effect on BSBM3 potency ([3]; RTCC combination matrix): ≤ 0.32 nM | AL-102 concentration with moderate effect on BSBM3 potency ([3]; RTCC combination matrix): 1.6 nM | AL-102 concentrations with maximum enhancement of BSBM3 potency ([3]; RTCC combination matrix): ≥ 8 nM | effect of AL-102 on RTCC potency of BSBM3 (in words) ([3]; combination with BSBM3): synergistically enhanced the RTCC potency of BSBM3; also recorded: enhanced the RTCC potency of BSBM3 in a dose dependent manner
